The text below walks through data of patent US20240342138A1, “MICROTUBULE TARGETING AGENTS” (BPGbio, Inc., priority 2023, published 2024).

For one series, the system named is CTG-1017. The settings on record: CRO historical data; cited from earlier work.
In series [1] the test system is Triple Negative Breast Cancer patient-derived organoids CTG-1520, CTG-0896, CTG-1017. The conditions noted are these: CTG-1520 ex vivo; Champion Oncology Lumen Platform database; cited from earlier work.
Series [2] shares this test system. Put plainly: Viability of PDO models of taxane resistance (CellTiter-Glo, 5 days). Format: cell-based, human. The conditions noted are these: same patient before (CTG-1017) and after (CTG-1520) taxane-based chemotherapy. The procedure: FIGS. 9A and 9B show potency of Compound 1 in patient-derived organoid (PDO) models of taxane resistance. Patient-derived organoids were treated with Compound 1, paclitaxel or controls (0.1% DMSO, positive control—10% DMSO) for 5 days. Viability was assessed using the CellTiter-Glo® assay. IC50 and maximal (max) inhibition values were extrapolated from the viability curves. A) Model overview and dose response curves to Compound 1 and paclitaxel. B) Summary of CellTiter-Glo results in all three models tested. Compiled data of N=4 replicates.
CTG-1520 and CTG-0896 were derived from Triple Negative Breast Cancer (TNBC) patients post-treatment, and progression on a taxane-based therapy and the models' resistance to paclitaxel was confirmed by testing in vivo PDX (Patient-derived xenograft) tumor growth. […] Compound 1 and paclitaxel were tested head-to-head in each model in a dose-curve setting. 10% DMSO was used as the positive control for induction of 100% cell cytotoxicity.

A further series concerns CTG-1520 PDX tumors. The conditions noted are these: CTG-1520 in vivo; Champion Oncology Lumen Platform database; cited from earlier work.
The nature of series [3]: Blood brain barrier permeability (PVDF membrane coated with porcine brain polar lipid extract). Format: in vitro ADME. The conditions noted are these: for recovery at 4 h, 10 μM: pig, not told. The procedure: Preparation of Donor Solution a) 0.2 mM working solution was prepared by diluting 10 mM stock solution with DMSO. b) 10 μM donor solution (5% DMSO) was prepared by diluting 20 μL of working solution with 380 μL PBS. 2) 150 μL of 10 μM donor solutions to each well of the donor plate, whose PVDF membrane was precoated with 5 μL of 1% brain polar lipid extract (Porcine)/dodecane mixture. Duplicates were prepared. 3) 300 μL of PBS was added to each well of the PTFE acceptor plate. 4) The donor plate and acceptor plate were combined together and incubated for 4h at room temperature with shaking at 300 rpm. 5) Preparation of TO sample: 20 μL donor solution was transferred to new well followed by the addition of 250 μL PBS (DF: 13.5), 130 μL ACN (containing internal standard) as TO sample. 6) Preparation of acceptor sample: The plate was removed from incubator. 270 μL solution was transferred from each acceptor well and mixed with 130 μL ACN (containing internal standard) as acceptor sample. 7) Preparation of donor sample: […] was transferred from each donor well and mixed with 250 μL PBS (DF: 13.5), 130 μL ACN (containing internal standard) as donor sample. 8) Acceptor samples and donor samples were all analyzed by LC/MS/MS.

Another series relates to HCT116 cells. Put plainly: Kinetochore assembly, immunocytochemistry / confocal microscopy. It is filed as cell-based. The conditions noted are these: 300 nM, 24h. How it is done: The HCT116 cells were cultured using DMEM media supplemented with 10% FBS and 1% Pen/Strep. Cells were maintained to a maximum of 80% confluency before being split and plated into coverslips in 12-well plates.
1. HCT116 cells were plated on Poly-D-Lysine German Glass Coverslips (#1.5, 18 mm)
2. After 24h cells were treated with 300 nM of Compound 1 and Nocodozole.
3. After 24h cells were washed briefly with PBS and fixed with warm 4% paraformaldehyde at room temperature for 10 min.
4. Cells were permeabilized and blocked in 10% goat serum, 0.5% Triton-X in PBS for 1 hr.
5. Cells were incubated with Primary antibodies overnight.
6. Washed 3× with PBS for 10 min
7. Incubated with secondary antibodies at room temperature for 1 hr.
8. Washed 3× with PBS for 10 min
9. Coverslips were mounted with ProLong Gold Anti-Fade Mount with DAPI and imaged with Olympus FV1200 MPE Microscope.
10. Images were collected with identical confocal settings for all of the samples and Z-stacked images were projected with maximal projection mode using Fluor View Software.
1. Selected cells of interest using the drawing/selection tools (i.e. rectangle, circle, polygon or freeform).
2. From the Analyze menu selected “Measure.”
3. Selected region with no fluorescence to be my background.
4. Repeated these steps for other cells in the field of view
5. Used the CTCF formula to calculate Mad1 expression:
CTCF=Integrated Density−(Area of selected cell×Mean fluorescence of background readings)
Micrographs were imaged using Olympus FV1200 MPE confocal microscope at 63× oil. White arrows indicate dividing cells. Representative images of N=3 biological replicates. Significance in difference of treated HCT116 cells to untreated cells was tested by Student t test (** p<0.01).

Series [4] concerns colchicine binding site of tubulin. Nature of the series: EBI labeling assay in MIA PaCa2 cells (Western blot). It is filed as cell-based. The settings on record: 2 hours compound, then 2 hours 100 μM EBI, FIG. 2, FIG. 3. (In general: Immunoblotting shows a protein as a band on a membrane.)
Protocol: MIA PaCa2 cells were cultured in DMEM+10% FBS and 1% P/S. Cells were plated at 1.5-2×10^6 in 60 mm dishes. For drug treatments, cells were treated the day after plating with 0.1% DMSO or the compounds tested at the concentrations indicated in FIG. 2 for 2 hours.
• Cells were treated with compounds for 2 hours at 37°, 5% CO2 (in the cell culture incubator), and then for an additional 2 hours with 100 μM EBI (with compounds present) under the same conditions. • Cells were then harvested with Trypsin and pelleted at 500 g for 3 minutes. • Cells were rinsed in 1 mL PBS and transferred to clean epi tubes. […] BCA assay plates were incubated for 15 minutes in the 37-degree incubator in the outer molecular lab. • After protein normalization (including addition of reducing Laemmli buffer from a 6× stock) samples were boiled at 95 degrees for 3 minutes and frozen for subsequent Western Blotting.
Significance in difference of treated MIA PaCa-2 cells to 0.1% DMSO treated cells were tested by Student t test (* p<0.05; ** p<0.01; *** p<0.001).

Usually TGI stands for the reduction of tumour growth relative to the control group.

SMILES strings stand for the structures.

For the compound `CC(=O)O[C@H]1C(=O)[C@@]2(C)[C@H]([C@H](OC(=O)c3ccccc3)[C@]3(O)C[C@H](OC(=O)[C@H](O)[C@@H](NC(=O)c4ccccc4)c4ccccc4)C(C)=C1C3(C)C)[C@]1(OC(C)=O)CO[C@@H]1C[C@@H]2O` [paclitaxel], in the series on CTG-1017, the “Sensitivity of model in vivo” value is “sensitive”. For the same compound, the max effect in series [1] is 29.1%. In series [2], the “Retention of potency in matched PDO models” value is reported as “did not”. Further, in the series on CTG-1520 PDX tumors, the TGI was 10%.

In series [3], `CC(C)NCC(O)COc1ccc(CC(N)=O)cc1` (centres unmarked) [Atenolol, reference compound] registered a recovery at 4 h, 10 μM below 100%.

For the compound `CC(C)NCC(O)COc1cccc2ccccc12` (centres unmarked) [Propranolol, reference compound], the Permeability entry in series [3] (10 μM, 4 h) is listed as “High”. Moreover, the Papp at 4 h, 10 μM in series [3] (PAMPA, read-out: Mean Pe) came out at 4.74 ×10⁻⁶ cm/s. This compound also registered a recovery at 4 h, 10 μM in series [3] of 27.7%.

`COC(=O)Nc1nc2cc(C(=O)c3cccs3)ccc2[nH]1` [nocodazole, reference compound]: the Mitotic spindle formation entry in the series with HCT116 cells (FIG. 4A) is “lack of proper mitotic spindle formation”. The Mad1 signal intensity entry with HCT116 cells (FIG. 4B) was “increase in Mad1 signal intensity”. The “Formation of EBI:β-tubulin adducts” value in series [4] is reported as “inhibited formation of the EBI:β-tubulin adducts”.
